Like-named read-outs stand apart in the source and are kept apart here.
Experiments:
[1] = tested on: inner mitochondrial membrane nonselective monovalent cation conductance (NMCC); assay type: biochemical, mouse
Description: The homogenate was centrifuged at 700 g for 5-10 min to pellet nuclei and unbroken cells. For some tissues, the first nuclear pellet was resuspended in the same solution and homogenized again to increase the yield of mitochondria. Mitochondria were collected by centrifugation of the supernatant at 8,500 g for 10 min. Mitochondria were suspended in a solution containing 140 mM sucrose, 440 mM D-mannitol, 5 mM HEPES, and 1 mM EGTA (pH adjusted to 7.2 with KOH), and then subjected to a French press at 2,000 psi to rupture the outer mitochondrial membrane (OMNI) and release the inner mitochondrial membrane (IMM) to form mitoplasts. Mitoplasts were pelleted at 10,500 g for 15 min and resuspended for storage in […] of solution containing 750 mM KCl, 100 mM HEPES and 1 mM EGTA (pH adjusted to 7.2 with KOH) to further release the IMM from the OMNI, see FIG. 1A. […] Mitochondria and mitoplasts were prepared at 0-4° C. and stored on ice for up to 5 h. Tissues were isolated from a mitochondrial calcium uniporter (MCU) knock-out mouse unless otherwise indicated.
A glass pipette recording electrode was used to form a gigaohm seal with the IMM in a bath solution containing 150 mM KCl, 10 mM HEPES, and 1 mM EGTA, pH 7.2 (adjusted with KOH). Capacitive transients were completely compensated right after the seal was formed. The patch of the IMM attached to the glass pipette recording electrode was then ruptured by high-amplitude voltage pulses (200-500 mV).
Currents were recorded using an Axopatch 200B amplifier (Molecular Devices). The current was dropped to −160 mV and then ramped up for 850 mS to +80 mV. All voltages indicated correspond to the mitochondrial matrix in respect to the bath (cytosol). Mitoplast conductance was normalized to the membrane capacitance (Cm) in all tissues examined. Current amplitudes for histograms were measured within 5 mS after stepping the membrane from 0 to −160 mV and were normalized to the total current. Whole-mitoplast control currents were recorded in a bath solution containing 150 mM HEPES, 1.5 mM EGTA, pH 7.0 adjusted with Tris base, osmolarity to 300 mmol/kg with sucrose.
For the assay, the pipette solution contained 110 mM Na-gluconate, 5 mM EGTA, 40 mM HEPES, 5 mM EDTA, and 1 mM NaCl and was tonicity adjusted to ˜350-370 mmol/kg with sucrose and pH adjusted to pH 7 with 1 M NaOH. The control bath solution contained 110 mM Na-gluconate, and 40 mM HEPES and was pH adjusted to pH 7 with 1 M NaOH. When assaying for the effect Ca^2+, 5 mM CaCl2) was added to the described bath solution.
For the DCCD assay, mitoplasts were prepared from wild-type C56BL/6 mice. The pipette solution contained 150 mM tetramethylammonium (TMA) hydroxide, 1.5 mM EGTA, 2 mM MgCl2, and 150 mM HEPES, was tonicity adjusted to ˜450 mmol/kg with sucrose and pH adjusted to pH 7 with D Gluconic Acid, and the bath solution contained 150 mM KCl, 1.5 mM EGTA, and 40 mM HEPES, and was pH adjusted to pH 7.2 with 1 M KOH. When assaying for DCCD effect, 10 μM DCCD was added to the described bath solution. […],
When assaying for inhibitor effect, […] or 5 μM CATR was added to the described bath solution.
For the Na^+ assays, the pipette solution contained 110 mM Na-gluconate, 5 mM EGTA, 40 mM HEPES, 5 mM EDTA, and 1 mM NaCl and was tonicity adjusted to ˜350-370 mmol/kg with sucrose and pH adjusted to pH 7 with 1 M NaOH. The bath solution contained 110 mM Na-gluconate, 5 mM EGTA, 40 mM HEPES, and 5 mM EDTA and was pH adjusted to pH 7 with 1 M NaOH.

[2] = log octanol/water partition coefficient; source not stated; cited from earlier work
[3] = 10 μM antimycin in bath, 125 mM K-gluconate, pH 7

Compound: N/C(=N\C(=O)c1nc(Cl)c(NCc2ccc(I)cc2)nc1N)NCCCCc1ccccc1 [5m, (E)-3-amino-N-(amino((4-phenylbutyl)amino)methylene)-6-chloro-5-((4-iodobenzyl)amino)pyrazine-2-carboxamide]
- effect on monovalent cation conductance ([1]; 1 μM 5m in bath, 125 mM K-gluconate, pH 7): almost completely inhibited

Compound: CCCCCCCCN/C(N)=N/C(=O)c1nc(Cl)c(NCc2ccc(I)cc2)nc1N [5o, (E)-3-amino-N-(amino(octylamino)methylene)-6-chloro-5-((4-iodobenzyl)amino)pyrazine-2-carboxamide]
- effect on monovalent cation conductance ([1]; 1 μM 5o in bath, 125 mM K-gluconate, pH 7): almost completely inhibited

Compound: CN(CCCCCCc1ccccc1)CCCCNC(=O)c1nc(Cl)c(NCc2ccc(Cl)cc2)nc1N [AA6, 3-amino-6-chloro-5-((4-chlorobenzyl)amino)-N-(4-(methyl(6-phenylhexyl)amino)butyl)pyrazine-2-carboxamide]
- effect on monovalent cation conductance ([1]; 200 nM AA6 in bath, 125 mM K-gluconate, pH 7): almost completely inhibited

Compound: CCCCC/C=C\C/C=C\C/C=C\C/C=C\CCCC(=O)O [AA, arachidonic acid]
- effect on monovalent cation conductance ([1]; […] AA in bath, 125 mM K-gluconate, pH 7): little to no effect

Compound: C=C1[C@@H]2CC[C@H]3[C@]4(C)C[C@H](O[C@@H]5O[C@H](CO)[C@@H](OS(=O)(=O)O)[C@H](OS(=O)(=O)O)[C@H]5OC(=O)CC(C)C)CC(C(=O)O)(C(=O)O)[C@H]4CC[C@]3(C2)[C@H]1O [CATR, carboxyatractyloside]
- effect on monovalent cation conductance ([1]; 5 μM CATR in bath, 125 mM K-gluconate, pH 7): little to no effect

Compound: [Ca+2].[Cl-].[Cl-] [Ca^2+, CaCl2]
- effect on monovalent cation conductance ([1]; 5 mM CaCl2 added to bath, 110 mM Na-gluconate, no chelator in bath, pH 7): inhibited

Compound: C(=NC1CCCCC1)=NC1CCCCC1 [DCCD, dicyclohexylcarbodiimide]
- effect on monovalent cation conductance ([1]; 10 μM DCCD in bath, 150 mM KCl bath, TMA pipette, mitoplasts from wild-type C56BL/6 mice): little to no effect

Compound: CCN(c1nc(N)c(C(=O)NC(=N)N)nc1Cl)C(C)C [EIPA, 5-(N-ethyl-N-isopropyl)amiloride]
- Concentration [1]: 80 µM
- effect on monovalent cation conductance ([1]; K+ assay (110 mM K-gluconate, pH 7), 80 μM EIPA in bath): significantly and almost completely inhibited
- effect on monovalent cation conductance ([1]; Na+ assay (110 mM Na-gluconate, pH 7), 100 μM EIPA in bath): significantly and almost completely inhibited

Compound: C[n+]1ccc(-c2ccccc2)cc1 [MPP+, 1-methyl-4-phenylpyridinium]
- effect on monovalent cation conductance ([1]; 0.5 mM MPP+ in bath, 125 mM K-gluconate, pH 7): little to no effect

Compound: CN(C)C(=N)NC(=N)N [Metformin]
- Concentration [1]: 30000 µM
- effect on monovalent cation conductance ([1]; pH 7): almost completely inhibited

Compound: [H]/N=C(/N)N/C(=N/[H])NCCc1ccccc1 [Phenformin]
- Concentration [1]: 2000 µM
- effect on monovalent cation conductance ([1]; 1 mM phenformin in bath, 125 mM K-gluconate, pH 7): almost completely inhibited
- logP [2]: −0.83

Compound: [H]/N=C(\N/C(=N/[H])Nc1ccc(Cl)cc1)NC(C)C [Proguanil]
- Concentration [1]: 100 µM
- effect on monovalent cation conductance ([1]; 100 μM proguanil in bath, 125 mM K-gluconate, pH 7): almost completely inhibited
- logP [2]: 2.53

Compound: C=C(C)[C@H]1Cc2c(ccc3c2O[C@@H]2COc4cc(OC)c(OC)cc4[C@@H]2C3=O)O1 [Rotenone, rotenone]
- effect on monovalent cation conductance ([1]; 10 μM rotenone in bath, 110 mM Na-gluconate, pH 7): little to no effect

Compound: N/C(=N\C(=O)c1nc(Cl)c(N)nc1N)NCc1ccccc1 [benzamil]
- effect on monovalent cation conductance ([1]; 10 μM benzamil in bath, 125 mM K-gluconate, pH 8): little to no effect

Compound: CC(C)(C)c1ccc(CCOc2ncnc3ccccc23)cc1 [fenazaquin]
- effect on monovalent cation conductance ([1]; 10 μM fenazaquin in bath, 110 mM Na-gluconate, pH 7): little to no effect

Compound: Cc1nn(C)c(Oc2ccccc2)c1/C=N/OCc1ccc(C(=O)OC(C)(C)C)cc1 [fenipiroximate]
- effect on monovalent cation conductance ([1]; 0.5 μM fenipiroximate in bath, 125 mM K-gluconate, pH 7): little to no effect

Compound: CO/C(=C/C(N)=O)[C@H](C)[C@H](/C=C/c1csc(-c2csc([C@@H](C)/C=C/C=C/C(C)C)n2)n1)OC [myxothiazol]
- effect on monovalent cation conductance ([1]; 10 μM myxothiazol in bath, 125 mM K-gluconate, pH 7): little to no effect

Compound: CC[C@H]1/C=C/C=C/C[C@@H](C)[C@H](O)[C@@](C)(O)C(=O)[C@@H](C)[C@H](O)[C@@H](C)C(=O)[C@@H](C)[C@H](O)[C@@H](C)/C=C/C(=O)O[C@@H]2[C@H](C)[C@H](CC1)O[C@]1(CC[C@H](C)[C@H](C[C@@H](C)O)O1)[C@H]2C [oligomycin]
- effect on monovalent cation conductance ([1]; 10 oligomycin (unit not given) in bath, 125 mM K-gluconate, pH 7): little to no effect

Compound: C/C=C(\C)[C@H](O)[C@H](C)/C=C(C)/C=C/C/C(C)=C/Cc1nc(OC)c(OC)c(O)c1C [piericidin]
- effect on monovalent cation conductance ([1]; 1 μM piericidin in bath, 110 mM K-gluconate, pH 7): little to no effect

Compound: CCCCCCCCCCC(O)C1CCC(C2CCC(C(O)CCCCCCCCCCC(O)CC3=CC(C)OC3=O)O2)O1 (stereo not drawn) [rolliniastatin]
- effect on monovalent cation conductance ([1]; 2 μM rolliniastatin in bath, 125 mM K-gluconate, pH 7): little to no effect

Compound: C/C=C(C)/C=C/C=C/[C@H](OC)[C@@H](C)[C@@H](OC)[C@@H](C)CCc1oc2c(O)c(OC)cc(OC)c2c(=O)c1C [stigmatellin]
- effect on monovalent cation conductance ([1]; 0.5 μM stigmatellin in bath, 125 mM K-gluconate, pH 7): little to no effect

Compound: Tertiapin Q [TQ]
- effect on monovalent cation conductance ([1]; 0.5 μM TQ in bath, 125 mM K-gluconate, pH 7): little to no effect

Compound: antimycin
- effect on monovalent cation conductance [1, 3]: little to no effect
- uncoupling H+ current overlapping with the K+ current [1, 3]: elicited an uncoupling H^+ current

Compound: atpenin
- effect on monovalent cation conductance ([1]; 0.2 μM or 1 μM atpenin in bath, 125 mM K-gluconate, pH 7): little to no effect

Compound: bullatacin
- effect on monovalent cation conductance ([1]; 1 μM bullatacin in bath, 125 mM K-gluconate, pH 7): little to no effect

Source: patent US20210223233A1, “Mitochondrial Conductance Inhibitors and Methods of Use Thereof” (The Regents of the University of California, priority 2018, published 2021)
